Test results taken from ChEMBL document CHEMBL1201862, “PubChem BioAssay data set” (2004).
The source made the active and inactive calls.

Legend:
[1] = system: Streptococcus sp. 'group A'; test: growth inhibition of control SK(-) GAS strain, dose response, counter-screen for streptokinase expression inhibitor project, luminescence, kanamycin, BacTiterGlo, confirmation (AID 1900); assay type: functional, organism-based
[2] = system: BJ; test: cytotoxicity toward BJ-TERT fibroblasts, dose response, cell-based, RAS-independent, luminescence (AID 1933); assay type: functional; details: Homo sapiens
[3] = target: Beta-galactosidase (Escherichia coli, UniProt Q8VNN2); test: PubChem AID 485352; assay type: functional
[4] = system: BJ; test: cells; assay type: functional, cell-based; details: Homo sapiens
[5] = inhibitors of intracellular T. cruzi replication, confirmation, NIH3T3 host cells, beta-gal luminescence (AID 2044); assay type: functional, cell-based;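 also: intracellular parasites grown in NIH/3T3 mouse fibroblasts as host cells; luminescent beta-galactosidase reporter signal from transgenic T. cruzi replicating inside host cells; inhibitors lower the luminescence signal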
[6] = target: T1, Type-1 angiotensin II receptor (Homo sapiens, UniProt P30556); test: AT1 receptor antagonists, dose response, selectivity assay for APJ receptor antagonist project, cell-based, uHTS hits (AID 463214); assay type: functional;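 also: antagonist potency against angiotensin II stimulated AT1 response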
T1 sequence (P30556 whole entry): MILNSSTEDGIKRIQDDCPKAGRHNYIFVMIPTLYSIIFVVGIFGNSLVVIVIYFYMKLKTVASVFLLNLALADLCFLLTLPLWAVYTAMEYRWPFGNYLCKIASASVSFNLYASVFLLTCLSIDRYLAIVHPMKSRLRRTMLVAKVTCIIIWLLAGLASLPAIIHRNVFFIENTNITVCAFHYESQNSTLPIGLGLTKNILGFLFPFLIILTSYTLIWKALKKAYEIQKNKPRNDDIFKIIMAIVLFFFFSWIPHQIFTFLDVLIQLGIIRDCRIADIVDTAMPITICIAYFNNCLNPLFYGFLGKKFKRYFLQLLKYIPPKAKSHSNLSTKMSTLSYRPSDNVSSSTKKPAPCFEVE

[7] = cytotoxicity toward NIH3T3 fibroblasts, dose response, counter-screen, cell-based, ATP luminescence, mouse fibroblasts (AID 2010); assay type: functional;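 also: cells exposed to compound for about 90 hours before reading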
[8] = system: BJ; test: cytotoxicity toward BJ-TERT-LT-ST fibroblasts, dose response, cell-based, RAS-independent, luminescence (AID 1935); assay type: functional; details: Homo sapiens;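 also: BJ fibroblasts immortalized with TERT plus LT and ST oncogenes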
[9] = cytotoxicity toward DRD oncogenic fibroblasts, dose response, cell-based, non-viral oncogenic, luminescence (AID 1934); assay type: functional; details: Homo sapiens
[10] = system: Streptococcus; test: Group A Streptococcus viability loss, dose response, counter-screen for streptokinase expression inhibitor project, luminescence, BacTiterGlo (AID 1915); assay type: functional, organism-based;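 also: potency for reduction of bacterial viability or growth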
[11] = target: Nonstructural protein 1 (Influenza A virus, UniProt Q194T2); assay type: functional, Influenza A virus (A/California/07/2009(H1N1))
[12] = target: T2, Replicative DNA helicase DnaB (Mycobacterium tuberculosis, UniProt P9WMR3); test: DnaB intein splicing inhibitors, dose response, biochemical, cell-free fluorescence (AID 449749); assay type: functional
T2 sequence (P9WMR3 whole entry): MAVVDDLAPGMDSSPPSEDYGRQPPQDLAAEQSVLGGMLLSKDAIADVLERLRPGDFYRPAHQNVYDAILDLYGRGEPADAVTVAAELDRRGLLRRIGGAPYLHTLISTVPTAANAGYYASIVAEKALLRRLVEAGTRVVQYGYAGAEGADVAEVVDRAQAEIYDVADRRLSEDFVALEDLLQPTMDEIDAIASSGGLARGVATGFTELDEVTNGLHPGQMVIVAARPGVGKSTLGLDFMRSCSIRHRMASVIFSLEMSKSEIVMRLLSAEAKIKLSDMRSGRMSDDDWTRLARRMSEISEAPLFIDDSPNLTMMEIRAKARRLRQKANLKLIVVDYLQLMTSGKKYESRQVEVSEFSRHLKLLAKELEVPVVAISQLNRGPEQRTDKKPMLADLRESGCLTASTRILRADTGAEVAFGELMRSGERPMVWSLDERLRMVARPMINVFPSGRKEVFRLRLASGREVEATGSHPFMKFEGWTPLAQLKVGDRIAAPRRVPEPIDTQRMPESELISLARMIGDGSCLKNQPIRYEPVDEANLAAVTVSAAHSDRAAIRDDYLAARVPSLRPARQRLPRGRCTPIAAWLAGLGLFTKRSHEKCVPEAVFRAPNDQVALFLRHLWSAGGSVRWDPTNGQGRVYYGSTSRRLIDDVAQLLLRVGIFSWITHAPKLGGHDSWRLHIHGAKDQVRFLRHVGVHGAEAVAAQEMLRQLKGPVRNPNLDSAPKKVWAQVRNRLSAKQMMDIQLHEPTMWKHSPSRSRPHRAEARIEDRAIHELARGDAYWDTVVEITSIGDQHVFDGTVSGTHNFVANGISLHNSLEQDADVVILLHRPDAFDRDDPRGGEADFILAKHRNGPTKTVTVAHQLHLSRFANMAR

[13] = target: T3, Protein RecA (Mycobacterium tuberculosis, UniProt P9WHJ3); test: Fluorescence Cell-Free Homogeneous Dose Retest to Identify Inhibitors of RecA-Intein Splicing Activity. [Related pubchem assays (depositor defined):AID2097, AID2223, AID489010, AID492950]; assay type: functional
T3 sequence (P9WHJ3 whole entry): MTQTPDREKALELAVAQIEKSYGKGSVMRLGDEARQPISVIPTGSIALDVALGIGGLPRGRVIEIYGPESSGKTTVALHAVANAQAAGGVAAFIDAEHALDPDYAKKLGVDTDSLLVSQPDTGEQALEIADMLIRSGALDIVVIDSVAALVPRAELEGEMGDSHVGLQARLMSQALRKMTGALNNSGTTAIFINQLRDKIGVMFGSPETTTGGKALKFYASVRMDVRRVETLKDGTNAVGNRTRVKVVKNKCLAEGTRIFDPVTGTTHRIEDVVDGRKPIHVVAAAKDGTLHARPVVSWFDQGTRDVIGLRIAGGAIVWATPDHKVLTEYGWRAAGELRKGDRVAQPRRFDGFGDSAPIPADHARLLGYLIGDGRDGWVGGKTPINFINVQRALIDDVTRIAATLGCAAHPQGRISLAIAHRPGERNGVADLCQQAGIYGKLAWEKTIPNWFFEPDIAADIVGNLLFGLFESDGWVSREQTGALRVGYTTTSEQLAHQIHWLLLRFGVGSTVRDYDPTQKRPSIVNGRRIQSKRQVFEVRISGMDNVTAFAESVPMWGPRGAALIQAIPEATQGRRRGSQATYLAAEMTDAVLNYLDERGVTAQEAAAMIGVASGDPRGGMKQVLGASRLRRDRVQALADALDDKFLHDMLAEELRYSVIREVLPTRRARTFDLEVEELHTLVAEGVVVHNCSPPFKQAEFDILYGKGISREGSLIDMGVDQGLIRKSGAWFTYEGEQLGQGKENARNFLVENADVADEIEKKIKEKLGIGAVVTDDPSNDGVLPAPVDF

[14] = system: INS1; test: beta cell apoptosis inhibitors, cytokine rescue, dose response, luminescence, retest (AID 449756); assay type: functional, cell-based; details: Rattus norvegicus, INS1;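 also: cell death triggered by IL-1 beta plus TNF-alpha plus IFN-gamma mixture; protective hits raise ATP signal compared with cytokine alone wells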
[15] = Artemis endonuclease inhibitor potency, dose response, biochemical, fluorescence intensity (AID 720701); assay type: functional;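 also: Artemis endonuclease enzyme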
[16] = target: Kallikrein-7 (Homo sapiens, UniProt P49862); test: Fluorescence Intensity-based biochemical primary high throughput dose response assay to identify activators of kallikrein-7 (K7) zymogen.
[17] = target: Glucose-6-phosphate 1-dehydrogenase (Homo sapiens, UniProt P11413); test: human G6PD enzyme inhibitors, dose response, selectivity assay for P. falciparum G6PD inhibitor project, biochemical, fluorescence (AID 504792); assay type: functional
[18] = target: T4, Small ubiquitin-related modifier 1 (Homo sapiens, UniProt P63165); test: inhibitors of SUMO1 peptide binding, dose response, biochemical, fluorescence polarization, uHTS hits (AID 624382); assay type: functional; details: read-out: IC50_Mean
[19] = target: T4, Small ubiquitin-related modifier 1; test: inhibitors of SUMO1 partner interactions, dose response, biochemical, FRET (AID 624383); assay type: functional; details: read-out: IC50_Mean
[20] = HeLa cell cytotoxicity, dose response, cytotoxicity control for MgcRacGAP inhibitor project (AID 624300); assay type: functional
[21] = target: T5, Rac GTPase-activating protein 1 (Homo sapiens, UniProt Q9H0H5); test: MgcRacGAP GTPase-activating activity inhibitors, confirmation, biochemical, ADP Hunter fluorescence, primary and confirmatory (AID 624330); assay type: functional
T5 sequence (Q9H0H5 whole entry): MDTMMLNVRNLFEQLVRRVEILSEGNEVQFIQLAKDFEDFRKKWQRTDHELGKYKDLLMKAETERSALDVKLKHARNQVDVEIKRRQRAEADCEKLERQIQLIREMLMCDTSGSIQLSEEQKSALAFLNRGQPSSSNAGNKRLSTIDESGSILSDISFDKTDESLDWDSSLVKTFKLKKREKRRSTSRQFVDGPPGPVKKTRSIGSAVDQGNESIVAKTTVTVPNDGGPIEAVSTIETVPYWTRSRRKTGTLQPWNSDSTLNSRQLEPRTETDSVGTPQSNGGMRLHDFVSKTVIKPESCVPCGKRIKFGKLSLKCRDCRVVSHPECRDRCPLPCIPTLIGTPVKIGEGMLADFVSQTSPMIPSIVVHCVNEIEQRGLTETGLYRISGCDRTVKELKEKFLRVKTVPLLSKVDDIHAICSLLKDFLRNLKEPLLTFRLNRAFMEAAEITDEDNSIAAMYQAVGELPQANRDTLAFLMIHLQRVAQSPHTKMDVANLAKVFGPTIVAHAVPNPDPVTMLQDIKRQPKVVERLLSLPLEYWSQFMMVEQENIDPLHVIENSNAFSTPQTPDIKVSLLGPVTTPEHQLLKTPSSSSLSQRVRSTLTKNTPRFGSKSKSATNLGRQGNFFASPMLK

[22] = target: T6, DNA repair protein RAD52 homolog (Homo sapiens, UniProt P43351); assay type: functional, biochemical
T6 sequence (P43351 whole entry): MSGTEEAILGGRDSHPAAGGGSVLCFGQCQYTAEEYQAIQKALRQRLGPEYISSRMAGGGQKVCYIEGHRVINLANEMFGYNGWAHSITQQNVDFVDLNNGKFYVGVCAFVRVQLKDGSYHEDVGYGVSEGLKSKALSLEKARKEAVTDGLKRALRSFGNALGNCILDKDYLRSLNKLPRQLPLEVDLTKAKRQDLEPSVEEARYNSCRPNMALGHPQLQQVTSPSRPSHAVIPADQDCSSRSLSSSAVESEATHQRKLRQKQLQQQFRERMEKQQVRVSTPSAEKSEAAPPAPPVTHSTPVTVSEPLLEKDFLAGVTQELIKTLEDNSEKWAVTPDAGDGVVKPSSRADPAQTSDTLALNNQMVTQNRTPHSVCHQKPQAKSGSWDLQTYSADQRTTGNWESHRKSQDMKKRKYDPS

[23] = THP-1 cell cytotoxicity, dose response, cytotoxicity control for Vif-APOBEC3G degradation inhibitor project, THP-1 cells (AID 1117359); assay type: functional; details: Human immunodeficiency virus 1, THP-1
[24] = target: Glutathione-S-transferase (Schistosoma japonicum, UniProt Q26513); test: biotin-GST/anti-GST TR-FRET signal inhibitors, dose response, artefact control for Vif-APOBEC3G degradation inhibitor project, biochemical (AID 1117362); assay type: functional
[25] = target: Paired box protein Pax-8 (Homo sapiens, UniProt Q06710); test: inhibitors of PAX8-driven TPO luciferase reporter, dose response, RMG-I cells, cherry-pick (AID 687027); assay type: functional, cell-based;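 also: luciferase reporter driven by Pax8 target thyroperoxidase promoter measured by SteadyGlo luminescence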
[26] = IOSE-T80 ovarian epithelial cell cytotoxicity, dose response, cytotoxicity control for PAX8 inhibitor project, plate reader, dry powder samples (AID 743045); assay type: functional, cell-based
[27] = A2780 ovarian cancer cell cytotoxicity, dose response, cytotoxicity control, plate reader, dry powder samples (AID 743046); assay type: functional, cell-based
[28] = inhibitors of PGC1a acetylation in cells, dose response, cell-based, cherry-picked samples (AID 720514); assay type: functional;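 also: potency may reflect raised or lowered acetylation signal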
[29] = NIH:OVCAR-3 ovarian cancer cell cytotoxicity, dose response, PAX8 inhibitor project, plate reader, dry powder samples (AID 743044); assay type: functional, cell-based
[30] = IGROV1 ovarian cancer cell cytotoxicity, dose response, PAX8 inhibitor project, plate reader, dry powder samples (AID 743043); assay type: functional, cell-based; details: IGROV-1
[31] = cytotoxicity in OVCAR8 ovarian cancer cells, dose response, PAX8 project, cell-based, plate reader, dry powder samples (AID 743197); assay type: functional; details: OVCAR-8

T4 sequence (P63165 whole entry): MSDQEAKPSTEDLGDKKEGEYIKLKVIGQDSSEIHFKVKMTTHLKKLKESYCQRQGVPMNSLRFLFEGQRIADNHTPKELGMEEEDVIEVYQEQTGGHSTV
Nonstructural protein 1, sequence (Q194T2 whole entry): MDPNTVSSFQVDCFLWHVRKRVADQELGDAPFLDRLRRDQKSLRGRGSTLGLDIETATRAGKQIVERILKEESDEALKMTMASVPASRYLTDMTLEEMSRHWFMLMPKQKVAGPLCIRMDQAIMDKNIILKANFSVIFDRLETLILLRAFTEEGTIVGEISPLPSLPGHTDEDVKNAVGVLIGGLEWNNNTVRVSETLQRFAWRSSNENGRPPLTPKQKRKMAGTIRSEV
Kallikrein-7, sequence (P49862 whole entry): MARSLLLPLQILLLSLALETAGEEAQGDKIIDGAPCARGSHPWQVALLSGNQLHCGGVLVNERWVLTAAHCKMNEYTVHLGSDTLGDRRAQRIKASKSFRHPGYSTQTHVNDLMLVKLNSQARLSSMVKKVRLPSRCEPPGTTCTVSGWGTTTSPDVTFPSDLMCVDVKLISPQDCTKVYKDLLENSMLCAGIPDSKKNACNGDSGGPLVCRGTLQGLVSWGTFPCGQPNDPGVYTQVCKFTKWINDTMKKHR
Paired box protein Pax-8, sequence (Q06710 whole entry): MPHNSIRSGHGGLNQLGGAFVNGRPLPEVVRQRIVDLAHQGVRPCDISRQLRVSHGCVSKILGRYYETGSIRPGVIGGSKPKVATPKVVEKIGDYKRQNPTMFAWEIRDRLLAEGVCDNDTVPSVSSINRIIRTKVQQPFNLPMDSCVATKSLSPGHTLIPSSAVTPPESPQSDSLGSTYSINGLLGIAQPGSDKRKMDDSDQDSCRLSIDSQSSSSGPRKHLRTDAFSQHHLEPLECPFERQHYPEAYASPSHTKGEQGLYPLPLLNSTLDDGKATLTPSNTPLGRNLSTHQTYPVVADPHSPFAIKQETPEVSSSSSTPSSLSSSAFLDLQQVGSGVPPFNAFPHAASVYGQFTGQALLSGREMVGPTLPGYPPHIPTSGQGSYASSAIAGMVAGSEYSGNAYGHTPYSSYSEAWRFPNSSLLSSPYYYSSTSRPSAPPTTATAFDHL
Beta-galactosidase, sequence (Q8VNN2 whole entry): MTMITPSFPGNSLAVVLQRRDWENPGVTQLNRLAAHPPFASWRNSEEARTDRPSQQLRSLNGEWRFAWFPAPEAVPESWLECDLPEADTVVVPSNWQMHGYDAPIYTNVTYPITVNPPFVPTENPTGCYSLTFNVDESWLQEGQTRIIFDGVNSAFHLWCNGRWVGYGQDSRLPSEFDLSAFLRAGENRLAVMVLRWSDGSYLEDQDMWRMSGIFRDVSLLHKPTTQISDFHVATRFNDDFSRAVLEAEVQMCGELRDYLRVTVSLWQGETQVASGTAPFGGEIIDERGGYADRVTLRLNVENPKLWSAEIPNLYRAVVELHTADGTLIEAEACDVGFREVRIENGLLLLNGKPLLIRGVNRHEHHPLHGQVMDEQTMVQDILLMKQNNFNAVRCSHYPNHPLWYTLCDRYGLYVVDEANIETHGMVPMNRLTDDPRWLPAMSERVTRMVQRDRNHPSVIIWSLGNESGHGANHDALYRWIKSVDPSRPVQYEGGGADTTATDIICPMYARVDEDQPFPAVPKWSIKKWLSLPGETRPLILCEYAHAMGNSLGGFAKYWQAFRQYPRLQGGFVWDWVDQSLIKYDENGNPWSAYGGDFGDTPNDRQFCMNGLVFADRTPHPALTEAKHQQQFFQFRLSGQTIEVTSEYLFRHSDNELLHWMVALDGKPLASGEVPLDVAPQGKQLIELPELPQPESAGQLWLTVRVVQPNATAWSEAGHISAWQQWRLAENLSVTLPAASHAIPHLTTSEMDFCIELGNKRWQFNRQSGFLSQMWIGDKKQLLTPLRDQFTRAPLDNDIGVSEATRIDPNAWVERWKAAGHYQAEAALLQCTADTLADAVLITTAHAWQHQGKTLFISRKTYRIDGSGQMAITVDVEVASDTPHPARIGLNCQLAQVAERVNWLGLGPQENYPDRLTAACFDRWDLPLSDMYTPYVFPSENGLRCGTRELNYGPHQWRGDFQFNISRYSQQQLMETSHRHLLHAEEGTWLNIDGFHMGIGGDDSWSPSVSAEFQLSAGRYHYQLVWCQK
Glutathione-S-transferase, sequence (Q26513 whole entry): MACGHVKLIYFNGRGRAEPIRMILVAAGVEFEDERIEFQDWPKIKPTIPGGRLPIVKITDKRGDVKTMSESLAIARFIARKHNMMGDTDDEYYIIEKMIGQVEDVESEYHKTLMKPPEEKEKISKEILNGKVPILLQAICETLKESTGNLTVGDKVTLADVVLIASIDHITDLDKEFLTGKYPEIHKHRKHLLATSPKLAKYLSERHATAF
Glucose-6-phosphate 1-dehydrogenase, sequence (P11413 whole entry): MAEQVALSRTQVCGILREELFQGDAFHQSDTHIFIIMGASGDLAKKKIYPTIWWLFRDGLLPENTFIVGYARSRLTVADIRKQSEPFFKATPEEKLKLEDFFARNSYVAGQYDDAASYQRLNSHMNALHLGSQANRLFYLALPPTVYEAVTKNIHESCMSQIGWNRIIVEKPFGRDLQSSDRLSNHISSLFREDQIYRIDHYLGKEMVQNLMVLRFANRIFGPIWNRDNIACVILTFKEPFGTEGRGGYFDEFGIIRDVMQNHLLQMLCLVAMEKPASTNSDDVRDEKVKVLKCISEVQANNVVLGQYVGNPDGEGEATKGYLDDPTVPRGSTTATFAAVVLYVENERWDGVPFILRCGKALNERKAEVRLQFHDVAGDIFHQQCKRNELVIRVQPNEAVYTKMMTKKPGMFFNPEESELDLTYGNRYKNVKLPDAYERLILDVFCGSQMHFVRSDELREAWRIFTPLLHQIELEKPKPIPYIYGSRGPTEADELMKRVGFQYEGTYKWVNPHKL

SMILES: c1ccc(-c2nc(N3CCCCCC3)c3ccccc3n2)nc1
- EC50 [1]: 0.947 µM (active)
- EC50 [2]: 9.59 µM (active)
- EC50 [3]: > 40 µM (inactive)
- EC50 [4]: 25.7 µM (active)
- EC50 [5]: 0.845 µM (active)
- IC50 [6]: > 40 µM (not active)
- EC50 [7]: 2.24 µM (active)
- EC50 [8]: 50.7 µM (inconclusive)
- EC50 [9]: 21 µM (active)
- EC50 [10]: 1.19 µM (active)
- IC50 [11]: 23 µM (active)
- AC50 [12]: 36.2 µM (active)
- EC50 [13]: > 380 µM (inconclusive)
- AC50 [14]: 1.8 µM (active)
- IC50 [15]: 4.71 µM (active)

SMILES: COc1ccc2oc(=O)c(C(=O)N3CCN(C(=O)c4ccccc4)CC3)cc2c1
- EC50 [16]: > 69.5 µM (inactive)

SMILES: Cc1cc(C)c2c(=N)c3ccccc3n(CCCCCCCCn3c4ccccc4c(=N)c4c(C)cc(C)nc43)c2n1
- IC50 [17]: 29 µM (inactive)
- IC50 [18]: > 66.6 µM (inactive)
- IC50 [19]: 4.83 µM (active)
- CC50 [20]: 20.4 µM (active)
- IC50 [21]: 26.3 µM (active)
- AC50 [22]: < 0.364 µM (active)
- CC50 [23]: 5.65 µM (active)
- IC50 [24]: 2.4 µM (active)

SMILES: N#Cc1ccc(-c2ccc([C@@H]3[C@@H]4CN(S(=O)(=O)c5ccc(-c6ccccc6)cc5)C[C@H]3N4)cc2)cc1
- AC50 [25]: 41.9 µM (active)
- AC50 [26]: 23.3 µM (active)
- AC50 [27]: 17.8 µM (active)
- AC50 [28]: 1.55 µM (active)
- AC50 [29]: 28.8 µM (active)
- AC50 [30]: 34.9 µM (active)
- AC50 [31]: 17.8 µM (active)
